Measurements published in publication PMC2944038 (Biochemical pharmacology, 2010).

Key:
MDCK cells = test: WST-1 cytotoxicity study in MDCK cells; assay type: cell-based; details: for cytotoxicity in MDCK cells (in words): cytotoxic if cell viability 80% or less, 10 min exposure
[1] = WST-1 cytotoxicity study in MDCK cells; assay type: cell-based; details: dog, MDCK cells (ASBT-MDCK or OCTN2-MDCK, not specified)
[2] = molecular target: T1, human apical sodium-dependent bile acid transporter (ASBT; SLC10A2) (Homo sapiens, UniProt Q12908); test: ASBT inhibition: taurocholate uptake into ASBT-MDCK cells; assay type: cell-based; details: for ASBT inhibitor: with consideration of cytotoxicity
T1 sequence (Q12908 1-348): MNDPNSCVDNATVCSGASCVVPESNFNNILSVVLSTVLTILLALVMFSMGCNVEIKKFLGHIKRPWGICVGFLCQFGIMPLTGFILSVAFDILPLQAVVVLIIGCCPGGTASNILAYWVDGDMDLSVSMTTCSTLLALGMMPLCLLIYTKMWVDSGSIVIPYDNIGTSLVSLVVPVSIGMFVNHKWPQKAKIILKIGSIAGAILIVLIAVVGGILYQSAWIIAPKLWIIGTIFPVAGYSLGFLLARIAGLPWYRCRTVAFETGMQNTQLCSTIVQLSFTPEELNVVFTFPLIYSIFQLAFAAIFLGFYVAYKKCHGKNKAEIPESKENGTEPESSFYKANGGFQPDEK

[3] = molecular target: T2, excitatory amino acid transporter 4 (EAAT4; SLC1A6) (Homo sapiens, UniProt P48664); test: EAAT4 inhibition: glutamate uptake into EAAT4-HEK cells; assay type: cell-based; details: for EAAT4 inhibitor: with consideration of cytotoxicity
T2 sequence (P48664 1-564): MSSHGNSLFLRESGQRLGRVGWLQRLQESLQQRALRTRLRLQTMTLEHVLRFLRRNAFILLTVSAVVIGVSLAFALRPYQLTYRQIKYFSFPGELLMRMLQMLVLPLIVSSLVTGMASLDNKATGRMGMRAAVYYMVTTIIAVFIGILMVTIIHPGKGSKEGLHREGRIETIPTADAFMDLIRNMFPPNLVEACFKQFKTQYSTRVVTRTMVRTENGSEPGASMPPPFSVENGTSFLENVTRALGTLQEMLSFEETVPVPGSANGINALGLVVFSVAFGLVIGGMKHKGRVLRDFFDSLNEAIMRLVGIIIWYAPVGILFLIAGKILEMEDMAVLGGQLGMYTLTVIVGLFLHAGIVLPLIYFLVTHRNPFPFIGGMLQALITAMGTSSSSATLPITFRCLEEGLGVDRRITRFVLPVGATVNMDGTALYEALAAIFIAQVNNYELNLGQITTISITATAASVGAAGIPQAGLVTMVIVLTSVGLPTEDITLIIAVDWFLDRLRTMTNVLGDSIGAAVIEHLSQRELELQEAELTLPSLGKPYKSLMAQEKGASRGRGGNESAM

HEK cells = details: for cytotoxicity in HEK cells (in words): cytotoxic if cell viability 80% or less, 10 min exposure
[4] = molecular target: T1, human apical sodium-dependent bile acid transporter (ASBT; SLC10A2); details: known inhibitors selected for this study; cited from earlier work
[5] = molecular target: T3, human organic cation/carnitine transporter (OCTN2; SLC22A5) (Homo sapiens, UniProt O76082); test: OCTN2 inhibition: L-carnitine uptake into OCTN2-MDCK cells; assay type: cell-based; details: for OCTN2 inhibitor: with consideration of cytotoxicity
T3 sequence (O76082 1-557): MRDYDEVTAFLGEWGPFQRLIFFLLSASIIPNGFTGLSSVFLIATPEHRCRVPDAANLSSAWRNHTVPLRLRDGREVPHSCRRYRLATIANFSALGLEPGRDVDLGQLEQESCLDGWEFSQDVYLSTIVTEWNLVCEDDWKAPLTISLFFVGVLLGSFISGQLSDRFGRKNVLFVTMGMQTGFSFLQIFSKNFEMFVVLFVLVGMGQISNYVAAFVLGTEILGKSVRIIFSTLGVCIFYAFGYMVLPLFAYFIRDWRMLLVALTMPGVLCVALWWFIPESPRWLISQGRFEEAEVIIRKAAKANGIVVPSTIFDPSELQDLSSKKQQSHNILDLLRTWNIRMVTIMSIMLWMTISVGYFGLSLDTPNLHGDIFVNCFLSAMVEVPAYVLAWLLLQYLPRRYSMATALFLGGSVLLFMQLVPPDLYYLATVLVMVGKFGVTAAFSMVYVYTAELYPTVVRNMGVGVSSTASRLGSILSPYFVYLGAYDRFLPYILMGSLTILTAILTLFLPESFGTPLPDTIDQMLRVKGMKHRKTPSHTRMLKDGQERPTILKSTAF

[6] = EAAT4-HEK, drug concentration not given

| SMILES | cytotoxicity in MDCK cells (in words) (MDCK cells) | ASBT inhibitor [2] | EAAT4 inhibitor [3] | cytotoxicity in HEK cells (in words) (HEK cells) | also measured |
| --- | --- | --- | --- | --- | --- |
| CCOC(=O)C1=C(COCCN)NC(C)=C(C(=O)OC)C1c1ccccc1Cl (stereo not shown) [Amlodipine, amlodipine] | cytotoxic to MDCK cells | – | – | – | cells non-viable (MDCK cells; MDCK cells): 60%; viability at 10 min, 100 μM [1]: 101 ± 6%; viability at 10 min, 500 μM [1]: 39.3% |
| CN(C)CCC(c1ccc(Cl)cc1)c1ccccn1 (stereo not shown) [Chlorpheniramine, chlorpheniramine] | – | only inhibited OCTN2 | – | – | – |
| CN1CCN(C2=Nc3cc(Cl)ccc3Nc3ccccc32)CC1 [Clozapine, clozapine] | not cytotoxic in MDCK cells | – | non-inhibitors of EAAT4 | reduced cell viability in HEK cells | – |
| COc1ccc([C@@H]2Sc3ccccc3N(CCN(C)C)C(=O)[C@@H]2OC(C)=O)cc1 [Diltiazem, diltiazem] | – | – | – | – | ASBT inhibition, previously reported [4]: known to inhibit both transporters |
| CC(C)n1c(/C=C/C(O)CC(O)CC(=O)O)c(-c2ccc(F)cc2)c2ccccc21 (stereo not shown) [Fluvastatin, fluvastatin] | – | – | inhibited all three transporters | without cytotoxicity | EAAT4 inhibition [3, 6]: ~35%; glutamate uptake [3, 6]: about 60%; viability at 10 min [1]: 107%; taurocholate uptake [2]: 4.51%; ASBT inhibition ([2]; ASBT-MDCK, drug concentration not given): over 90%; OCTN2 inhibition (reduction of L-carnitine uptake) ([5]; OCTN2-MDCK, drug concentration not given): ~35%; ASBT inhibition, previously reported [4]: competitively inhibits ASBT |
| COc1ccc2c(c1)c(CC(=O)O)c(C)n2C(=O)c1ccc(Cl)cc1 [Indomethacin, indomethacin] | – | only inhibited ASBT | – | – | OCTN2 inhibitor [5]: only inhibited ASBT |
| CC[C@H](C)C(=O)O[C@H]1C[C@@H](C)C=C2C=C[C@H](C)[C@H](CC[C@@H]3C[C@@H](O)CC(=O)O3)[C@H]21 [Lovastatin, lovastatin] | – | – | did not appreciably inhibit EAAT4 | – | – |
| COC(=O)C1=C(C)NC(C)=C(C(=O)OCCN(C)Cc2ccccc2)C1c1cccc([N+](=O)[O-])c1 (stereo not shown) [Nicardipine, nicardipine] | cytotoxic to MDCK cells | only inhibited ASBT | – | – | – |
| COC(=O)C1=C(C)NC(C)=C(C(=O)OCC(C)C)C1c1ccccc1[N+](=O)[O-] (stereo not shown) [Nisoldipine, nisoldipine] | cytotoxic to MDCK cells | only inhibited ASBT | – | – | viability at 10 min, 100 μM [1]: 56%; OCTN2 inhibitor [5]: not classed as OCTN2 inhibitors |
| CCC(C)(C)C(=O)O[C@H]1C[C@@H](C)C=C2C=C[C@H](C)[C@H](CC[C@@H]3C[C@@H](O)CC(=O)O3)[C@H]21 [Simvastatin, simvastatin] | – | – | did not appreciably inhibit EAAT4 | – | – |
| CSc1ccc2c(c1)N(CCC1CCCCN1C)c1ccccc1S2 (stereo not shown) [Thioridazine, thioridazine] | not cytotoxic in MDCK cells | – | non-inhibitors of EAAT4 | reduced cell viability in HEK cells | viable cells / cell viability (HEK cells; HEK cells, 10 min, drug concentration not given): 73.5%; ASBT inhibition, previously reported [4]: known to inhibit both transporters |
| Clc1ccc(C(Cn2ccnc2)OCc2ccsc2Cl)c(Cl)c1 (stereo not shown) [Tioconazole, tioconazole] | not in MDCK cells | – | non-inhibitors of EAAT4 | reduced cell viability in HEK cells | – |
| CN(C)CCCN1c2ccccc2Sc2ccc(Cl)cc21 [chlorpromazine] | not cytotoxic in MDCK cells | – | – | – | – |
